Reference: patent US7507704B1, “Receptor modulated cancer protocols” (priority 2002, dated 2009)

Assays:
Metastatic Breast Cancer [1] = test: Skipper log cell kill model projection for trastuzumab regimens (antagonistic scenario); conditions: estimated from AC group, 23%÷68%
Metastatic Breast Cancer [2] = conditions: cytotoxics q 21 days × 6, trastuzumab q week, actual Phase III data; cited from earlier work
[3] = rifampicin co-administered with erlotinib; cited from earlier work
[4] = in vivo; cited from earlier work

For `O=P1(N(CCCl)CCCl)NCCCO1` (stereo not shown) [C, cyclophosphamide], the “"stand alone" tumor kill rate” value (Metastatic Breast Cancer [1]) was 34%.
For `CC(=O)O[C@H]1C(=O)[C@@]2(C)[C@H]([C@H](OC(=O)c3ccccc3)[C@]3(O)C[C@H](OC(=O)[C@H](O)[C@@H](NC(=O)c4ccccc4)c4ccccc4)C(C)=C1C3(C)C)[C@]1(OC(C)=O)CO[C@@H]1C[C@@H]2O` [Paclitaxel], the “Median Survival” value (Metastatic Breast Cancer [2]) is listed as 18.4 months.
In the case of `CO[C@H]1/C=C/O[C@@]2(C)Oc3c(C)c(O)c4c(O)c(c(/C=N/N5CCN(C)CC5)c(O)c4c3C2=O)NC(=O)/C(C)=C\C=C\[C@H](C)[C@H](O)[C@@H](C)[C@@H](O)[C@@H](C)[C@H](OC(C)=O)[C@@H]1C` [Rifampicin], the “increased clearance of erlotinib” value [3] is listed as 3 fold.
For `CC/C(=C(\c1ccccc1)c1ccc(OCCN(C)C)cc1)c1ccccc1` [Tamoxifen], the “plasma concentration half life” value [4] is given as 120 to 170 h.
